Measurements reported in ChEMBL document CHEMBL4325861, “Naphthalene, a versatile platform in medicinal chemistry: Sky-high perspective” (Eur J Med Chem, 2019).
Values after ≈ are worked out from the molar mass of the structure shown.

Tests used:
[1] = test system: THP-1; test: Anti-inflammatory activity in human THP1 cells assessed as reduction in TNF production; format: functional, cell-based
[2] = Antiproliferative activity against human MEL28 cells; format: functional, cell-based; settings: SK-MEL-28
[3] = test system: HT-29; test: Antiproliferative activity against human HT-29 cells; format: functional, cell-based
[4] = test system: A549; test: Antiproliferative activity against human A549 cells; format: functional, cell-based
[5] = test system: P388; test: Antiproliferative activity against mouse P388 cells; format: functional, cell-based
[6] = test system: Neutrophil; test: Anti-inflammatory activity in human neutrophils assessed as inhibition of fMLP/cytochalasin B-induced superoxide anion generation preincubated for 5 mins followed by fMLP/cytochalasin B addition and measured after 10 mins by spectrophotometric method; format: functional, cell-based
[7] = test system: Neutrophil; test: Anti-inflammatory activity in human neutrophils assessed as inhibition of fMLP/cytochalasin B-induced elastase release preincubated for 5 mins followed by fMLP/cytochalasin B addition; format: functional, cell-based
[8] = test system: Aspergillus niger; test: Antifungal activity against Aspergillus niger by disk diffusion method; format: functional
[9] = test system: HL-60; test: Antiproliferative activity against human HL60 cells; format: functional, cell-based
[10] = test system: Rattus norvegicus; test: Anti-inflammatory activity in rat assessed as inhibition of carrageenan-induced paw edema after 4 hrs relative to control; format: functional
[11] = target: Chymase (Homo sapiens, UniProt P23946); test: Inhibition of chymase in human mast cells using Suc-Ala-Ala-Pro-Phe-(p-nitroanilide) as substrate for 15 mins by spectrophotometric method; format: cell-based
Chain of Chymase (P23946 whole entry): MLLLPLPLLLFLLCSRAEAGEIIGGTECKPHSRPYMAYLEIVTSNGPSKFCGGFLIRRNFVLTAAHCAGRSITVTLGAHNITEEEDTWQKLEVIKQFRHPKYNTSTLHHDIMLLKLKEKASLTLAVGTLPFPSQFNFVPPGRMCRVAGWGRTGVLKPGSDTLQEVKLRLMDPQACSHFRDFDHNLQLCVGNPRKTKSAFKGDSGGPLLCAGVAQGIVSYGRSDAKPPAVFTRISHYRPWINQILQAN

[12] = test system: Human immunodeficiency virus 1; test: Antiviral activity against HIV1; format: functional, organism-based
[13] = target: Prostaglandin G/H synthase 2 (Homo sapiens, UniProt P35354); test: Inhibition of COX2 (unknown origin)
Chain of Prostaglandin G/H synthase 2 (P35354 whole entry): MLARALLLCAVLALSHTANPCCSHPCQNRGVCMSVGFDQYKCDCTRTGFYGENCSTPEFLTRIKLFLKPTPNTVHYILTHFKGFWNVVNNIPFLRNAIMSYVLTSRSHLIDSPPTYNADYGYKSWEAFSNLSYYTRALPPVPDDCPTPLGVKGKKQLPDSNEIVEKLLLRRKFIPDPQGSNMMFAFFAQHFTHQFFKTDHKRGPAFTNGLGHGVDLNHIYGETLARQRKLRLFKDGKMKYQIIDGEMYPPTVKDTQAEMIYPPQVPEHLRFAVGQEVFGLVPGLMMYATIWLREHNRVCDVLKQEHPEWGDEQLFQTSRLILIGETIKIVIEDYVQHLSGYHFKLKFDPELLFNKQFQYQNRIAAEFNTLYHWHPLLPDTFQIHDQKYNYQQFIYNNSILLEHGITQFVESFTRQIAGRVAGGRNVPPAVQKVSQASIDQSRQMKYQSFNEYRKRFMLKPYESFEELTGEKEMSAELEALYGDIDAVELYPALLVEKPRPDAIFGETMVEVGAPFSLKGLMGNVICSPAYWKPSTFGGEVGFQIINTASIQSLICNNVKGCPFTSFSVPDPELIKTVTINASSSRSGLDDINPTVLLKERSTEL

[14] = test system: HeLa; test: Antiproliferative activity against human HeLa cells; format: functional, cell-based
[15] = test system: Staphylococcus aureus; test: Antibacterial activity against Staphylococcus aureus; format: functional
[16] = test system: Candida albicans; test: Antifungal activity against Candida albicans; format: functional
[17] = test system: Mycobacterium avium; test: Antimycobacterial activity against Mycobacterium avium; format: functional
[18] = target: Angiotensin II receptor (Homo sapiens, UniProt P30556+P50052); test: Antagonist activity at angiotensin-2 receptor (unknown origin); format: protein assay
[19] = test system: Rattus norvegicus; test: Anti-inflammatory activity in rat assessed as inhibition of carrageenan-induced paw edema relative to control; format: functional
[20] = test system: Cryptococcus neoformans; test: Antifungal activity against Cryptococcus neoformans; format: functional
[21] = test system: Mycobacterium tuberculosis; test: Antimycobacterial activity against Mycobacterium tuberculosis H37Rv; format: functional, organism-based
[22] = test system: Mycobacterium tuberculosis; test: Antimycobacterial activity against Mycobacterium tuberculosis; format: functional
[23] = target: Prostaglandin G/H synthase 1 (Homo sapiens) (UniProt P23219); test: Inhibition of COX1 (unknown origin) at 10 uM relative to control
Chain of Prostaglandin G/H synthase 1 (Homo sapiens) (P23219 whole entry): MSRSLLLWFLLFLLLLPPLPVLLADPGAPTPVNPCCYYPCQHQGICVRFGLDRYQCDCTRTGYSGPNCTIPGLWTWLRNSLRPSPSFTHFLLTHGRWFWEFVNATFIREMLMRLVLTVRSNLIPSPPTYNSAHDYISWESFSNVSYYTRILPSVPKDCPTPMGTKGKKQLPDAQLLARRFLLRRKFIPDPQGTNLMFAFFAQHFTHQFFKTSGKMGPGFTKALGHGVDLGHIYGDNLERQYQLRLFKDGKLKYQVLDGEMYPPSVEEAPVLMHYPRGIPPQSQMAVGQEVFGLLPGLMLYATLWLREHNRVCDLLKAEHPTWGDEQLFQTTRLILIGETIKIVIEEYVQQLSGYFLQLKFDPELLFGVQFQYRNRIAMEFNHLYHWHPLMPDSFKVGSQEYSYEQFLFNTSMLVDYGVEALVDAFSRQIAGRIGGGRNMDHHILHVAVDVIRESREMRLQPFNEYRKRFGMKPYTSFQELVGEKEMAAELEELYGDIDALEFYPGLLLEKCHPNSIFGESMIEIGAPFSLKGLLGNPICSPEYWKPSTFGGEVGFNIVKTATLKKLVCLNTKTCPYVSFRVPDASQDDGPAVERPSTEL

[24] = target: Prostaglandin G/H synthase 2 (Homo sapiens) (UniProt P35354); test: Inhibition of COX2 (unknown origin) at 10 uM relative to control
Chain of Prostaglandin G/H synthase 2 (Homo sapiens) (P35354 whole entry): as the sequence (P35354 whole entry) above

[25] = Inhibition of Norovirus RNA-dependent RNA polymerase
[26] = test system: Human immunodeficiency virus 1; test: Antiviral activity against HIV1 infected in human MT4 cells; format: functional, organism-based; settings: Human immunodeficiency virus 1, MT4

CN1CCC(N)CC1c1ccc(-c2ccc(N)c3ccccc23)cn1 (stereo unspecified)
IC50 [1]: < 10 µM

COc1cc(/C=C\c2ccc3ccccc3c2)cc(OC)c1OC [NAPHTHYLCOMBRETASTATIN]
IC50 [2]: 5.4 µM | IC50 [3]: 5.4 µM | IC50 [4]: 7.4 µM | IC50 [5]: 6.4 µM

COc1cc(C(C)=O)c(O)c2ccc(O)cc12
IC50 [6]: 1.9 µg/mL (≈ 8.18 µM) | IC50 [7]: 3.17 µg/mL (≈ 13.6 µM)

c1ccc(-c2ccc3c(c2)CCCC3)cc1
MIC [8]: 780 µg/mL (≈ 3740 µM)

CC(=O)Oc1ccc2[nH]c3c(c2c1)C(=O)c1ccccc1C3=O
IC50 [9]: 1.31 µM

Oc1c(C2=NNC(c3ccc(Br)cc3)C2)ccc2ccccc12 (stereo unspecified)
inhibition (INH) [10]: 68.96%

O=C(c1ccc2ccccc2c1)C(c1cccc2ccccc12)P(=O)(O)O (stereo unspecified)
Ki [11]: 0.0023 µM

CC(C)C(NC(=O)COc1ccc2ccccc2c1)C(=O)NN (stereo unspecified)
EC50 [12]: 42 µg/mL (≈ 133 µM)

CS(=O)(=O)Nc1cc(Cc2ccc(Cl)cc2)c2ccccc2c1
IC50 [13]: 10 µM

COc1ccc(/C=C\c2ccc3ccccc3c2)cc1O
IC50 [2]: 5.4 µM | IC50 [3]: 5.4 µM | IC50 [4]: 7.4 µM | IC50 [5]: 6.4 µM

Nc1ccc(-c2ccc(Cc3cccnc3)c(O)c2)c2ccccc12
IC50 [1]: < 10 µM

O=C1c2cccc3cc([N+](=O)[O-])cc(c23)C(=O)C1CN1CCCCC1 (stereo unspecified)
IC50 [14]: 2 µg/mL (≈ 5.91 µM)

CC(C)NC(=N)c1ccc2c(c1)nc(-c1ccc3c(c1)C(C)(C)CCC3(C)C)n2Cc1ccc2ccccc2c1
MIC [15]: 0.78 µg/mL (≈ 1.48 µM) | MIC [16]: 0.78 µg/mL (≈ 1.48 µM)

C(=C\c1ccc2ccccc2c1)/c1ccc2ccccc2c1
IC50 [2]: 5.4 µM | IC50 [3]: 5.4 µM | IC50 [4]: 7.4 µM | IC50 [5]: 6.4 µM

O=C(Nc1cccc(F)c1)c1cccc2ccccc12
MIC [17]: 59 µM (≈ 15.7 µg/mL)

CCC(Cl)Cc1nc(CO)cn1Cc1ccc2cc(-c3nnn[nH]3)ccc2c1 (stereo unspecified)
IC50 [18]: 0.2 µM

COc1ccccc1C1CC(Nc2ccc3ccccc3c2)=NN1C(C)=O (stereo unspecified)
inhibition (INH) [19]: 67.85%

CN(C)CCNC(=O)c1cc2c3ccccc3sc2c2ccccc12
IC50 [5]: 0.428 µM

O=[N+]([O-])c1ccc2c(c1)-c1nnsc1CC2
MIC [20]: 0.53 µg/mL (≈ 2.27 µM)

CCN(CC)CC1C(=O)c2cccc3cc([N+](=O)[O-])cc(c23)C1=O (stereo unspecified)
IC50 [14]: 2.5 µg/mL (≈ 7.66 µM)

COc1ccc(/C=C/c2ccc3ccccc3c2)cc1O
IC50 [2]: 5.4 µM | IC50 [3]: 5.4 µM | IC50 [4]: 7.4 µM | IC50 [5]: 6.4 µM

CN(C)CCNC(=O)c1cc2c3c(cccc3c1)Sc1ccccc1-2
IC50 [5]: 0.176 µM

COc1ccc2cc([C@H](C)C(=O)O)ccc2c1 [NAPROXEN]
inhibition (INH) [19]: 85.02%

CN(C)CCOc1ccc2c(c1)c1c(n2C)C(=O)c2ccccc2C1=O
IC50 [9]: 0.28 µM

CC(=O)c1ccnc(C2=CC(=O)c3ccccc3C2=O)c1
MIC [21]: 3.13 µg/mL (≈ 11.3 µM)

COc1nc2ccc(Br)cc2cc1[C@@H](c1ccccc1)[C@@](O)(CCN(C)C)c1cccc2ccccc12 [BEDAQUILINE]
MIC [22]: 0.06 µg/mL (≈ 0.108 µM)

COc1ccc2cc(CCS(C)(=O)=O)ccc2c1
inhibition [23]: 29% | inhibition [24]: 65% | IC50 [13]: 10 µM

Cc1nc(/N=N/c2cc(S(=O)(=O)O)c3cc([N+](=O)[O-])cc(S(=O)(=O)O)c3c2)cc(C=O)c1O
IC50 [25]: 0.45 µM

O=C(COc1ccc2ccccc2c1)NCc1nnc(SCc2nc3ccccc3[nH]2)n1-c1ccccc1
EC50 [26]: 0.2 µg/mL (≈ 0.384 µM)

CN(C)CC1C(=O)c2cccc3cc([N+](=O)[O-])cc(c23)C1=O (stereo unspecified)
IC50 [14]: 0.15 µg/mL (≈ 0.503 µM)
